Test results taken from the NIST ThermoML archive (doi:10.1016/j.jct.2012.03.002).

Legend:
[1] = 298.15 K, 101 kPa, Liquid; for viscosity: Capillary tube (Ostwald / Ubbelohde) method; for mass density: Vibrating tube method
[2] = refractive index (Na D-line) (dimensionless); conditions: 298.15 K; 101 kPa; Liquid; Standard Abbe refractometry
[3] = wn = mass fraction of the nth substance listed; conditions: 298.15 K, 101 kPa, Liquid; for viscosity: Capillary tube (Ostwald / Ubbelohde) method; for mass density: Vibrating tube method
[4] = refractive index (Na D-line) (dimensionless); wn = mass fraction of the nth substance listed; conditions: 298.15 K, 101 kPa, Liquid, Standard Abbe refractometry
[5] = refractive index (Na D-line) (dimensionless); cn = amount concentration of the nth substance listed, in mol/dm3; conditions: 298.15 K, 101 kPa, Liquid, Standard Abbe refractometry
[6] = cn = amount concentration of the nth substance listed, in mol/dm3; conditions: 298.15 K, 101 kPa, Liquid, Alternating current cell with electrodes

O=[N+]([O-])c1ccccc1 [nitrobenzene]
Conditions	mass density [kg/m3]	refractive index	viscosity [mPa·s]
[1]	1197.7	–	1.809
[2]	–	1.5493	–

O=[N+]([O-])c1ccccc1 [nitrobenzene] + C[N+](=O)[O-]
w2 = 0
Conditions	mass density [kg/m3]	refractive index	viscosity [mPa·s]
[3]	1197.7	–	1.809
[4]	–	1.5493	–

O=[N+]([O-])c1ccccc1 [nitrobenzene] + [Na+].c1ccc([B-](c2ccccc2)(c2ccccc2)c2ccccc2)cc1
Conditions	refractive index
[5], c2 = 0	1.5493

C[N+](=O)[O-] [nitromethane]
Conditions	mass density [kg/m3]	refractive index	viscosity [mPa·s]
[1]	1128.8	–	0.614
[2]	–	1.3799	–

C[N+](=O)[O-] [nitromethane] + O=[N+]([O-])c1ccccc1
Conditions	mass density, [3] [kg/m3]	refractive index, [4]	viscosity, [3] [mPa·s]
w1 = 0.25	1178.4	1.5051	0.918
w1 = 0.5	1161.1	1.4623	0.827
w1 = 0.75	1144.7	1.4201	0.745
w1 = 1	1128.8	1.3799	0.614

C[N+](=O)[O-] [nitromethane] + [Na+].c1ccc([B-](c2ccccc2)(c2ccccc2)c2ccccc2)cc1
Conditions	refractive index
[5], c2 = 0	1.3799

[Na+].c1ccc([B-](c2ccccc2)(c2ccccc2)c2ccccc2)cc1 [sodium tetraphenylboron] + C[N+](=O)[O-]
Conditions	molar conductivity [S·m2/mol]	refractive index
[5], c1 = 0.0044	–	1.3803
[5], c1 = 0.0178	–	1.3811
[5], c1 = 0.0313	–	1.3819
[5], c1 = 0.0449	–	1.3826
[5], c1 = 0.0586	–	1.3837
[6], c1 = 0.001163	0.008583	–
[6], c1 = 0.002132	0.008413	–
[6], c1 = 0.002952	0.008296	–
[6], c1 = 0.003655	0.008195	–
[6], c1 = 0.004797	0.008057	–
[6], c1 = 0.005686	0.007972	–
[6], c1 = 0.006397	0.007909	–
[6], c1 = 0.006701	0.007878	–
[6], c1 = 0.007231	0.007825	–
[6], c1 = 0.007676	0.007789	–
[6], c1 = 0.008055	0.00776	–
[6], c1 = 0.008382	0.007739	–

[Na+].c1ccc([B-](c2ccccc2)(c2ccccc2)c2ccccc2)cc1 [sodium tetraphenylboron] + O=[N+]([O-])c1ccccc1
Conditions	molar conductivity [S·m2/mol]	refractive index
[5], c1 = 0.0042	–	1.5498
[5], c1 = 0.0168	–	1.5506
[5], c1 = 0.0295	–	1.5511
[5], c1 = 0.0423	–	1.5518
[5], c1 = 0.0552	–	1.5526
[6], c1 = 0.001579	0.00273	–
[6], c1 = 0.002187	0.002689	–
[6], c1 = 0.002707	0.00266	–
[6], c1 = 0.003159	0.002634	–
[6], c1 = 0.003902	0.002597	–
[6], c1 = 0.004489	0.002572	–
[6], c1 = 0.004964	0.002553	–
[6], c1 = 0.005966	0.002516	–
[6], c1 = 0.006419	0.0025	–
[6], c1 = 0.006844	0.002482	–
[6], c1 = 0.00722	0.002471	–
[6], c1 = 0.007448	0.002463	–
